Assay results taken from patent US7491849B2, “Oligoamine compounds and derivatives thereof for cancer therapy” (priority 2001, dated 2009).

Assays:
Calf-thymus DNA = Calf-thymus DNA aggregation (absorbance at 320 nm); type: biochemical; details: 50 mM NaCl, 1 mM Na-cacodylate pH 7.0
Description: Calf-thymus DNA aggregation by spermine and oligoamines.
Test for DNA Aggregation: DNA aggregation was studied using a Perkin-Elmer Lambda 25 UV/visible spectrophotometer connected to a PTP 6 heating unit using a previously published procedure (see Basu, H S and Marton, L J, “The interaction of spermine and pentamines with DNA,” Biochemical Journal 244:243-246 (1987)). Aggregation was determined in 50 mM NaCl, 1 mM Na-cacodylate pH 7.0 buffer by observing the increase in DNA absorbance (approximately 0.5 A260 units) at 320 nm.

DuPro = assay: MTT assay, tumor cell growth, DuPro; type: cell-based; details: 6 days incubation, read-out: ID50 (μM) values for Human Tumor Cell Lines, DuPro
Description: (§1) Effect of Saturated Oligoamines on Human Prostate Tumor Cell Growth by the MTT assay. Saturated oligoamines inhibited prostate cancer cell growth in vitro. DU-145 cells were most sensitive and PC-3 cells were less sensitive to the effects of oligoamines. In general, ID50 values of less than 0.5 μM were obtained (Table 2). Even though the PC-3 cells were relatively more resistant to the oligoamines, at a 5 μM concentration the oligoamines reduced the cell number to less than 1% of the control on day 6 of incubation. Tissue cultures and the MTT assay were performed as follows.
(§2) Tissue Culture. Cells were seeded into 75 cm^2 culture flasks with 15 ml of Eagle's minimal essential medium supplemented with 10% fetal calf serum and nonessential amino acids. The flasks were incubated in a humidified 95% air/5% CO2 atmosphere. The cells were grown for at least 24 h to ensure that they are in the log phase of growth and then they were treated with the oligoamines. Cells were harvested by treatment for 5 min with STV (saline A, 0.05% trypsin, 0.02% EDTA) at 37° C. The flasks were rapped on the lab bench, pipetted several times and aliquots of cell suspension were withdrawn and counted using a Coulter particle counter that has been standardized for counting each cell line using a hemacytometer.
(§3) MTT Assay: Trypsinized cell suspensions were diluted to seed 80 μl suspensions containing 500 cells in each well of a 96 well Corning microtiter plate and incubated overnight at 37° C. in a humidified incubator in 5% CO2. 20 μl of appropriately diluted stock solution of each drug were added to the middle 8 columns of cell suspension in the microtiter plates. Each drug concentration was run in quadruplicate. Outer columns of the plates were used for buffer controls. Cells were incubated with the drug for 6 days at 37° C. in 5% CO2/H2O atmosphere. 25 μl of 5 mg/ml solution of 3-(4,5-dimethylthiazol-2-yl)-2,5-diphenyl tetrazolium bromide (MTT) were added to each well and incubated for 4 hours at 37° C. in 5% CO2/H2O incubator. Cells were lysed by incubating overnight with 100 μl lysis buffer (500 ml of the lysis buffer contains: 100 g lauryl sulfate (SDS), 250 ml of N,N-dimethylformamide, and 2 ml of glacial acetic acid, made up to volume with water; pH 4.8).
(§4) The color was monitored at room temperature at 570 nm in a E-max Precision Microplate Reader (Molecular Devices Corporation, Sunnyvale, Calif.) and data was analyzed using cell survival software supplied by Molecular Devices Corporation.

DuPro Cells = assay: Cellular polyamine and oligoamine levels, DuPro cells (HPLC); type: cell-based
Description: (§5) Cellular Uptake of Oligoamines. There was considerable uptake of oligoamines by the cancer cell lines; see Table 3A (DuPro cells) and Table 3B (PC-3 cells). […] While not wishing to be limited by any particular theory of operation, the cytotoxicity is likely related to their strong aggregation effect on DNA.
(§6) Polyamine Analysis. An appropriate number of cells were taken from harvested samples and centrifuged at 1000 rpm at 4° C. for 5 min. The cells were washed twice with chilled Dulbecco's isotonic phosphate buffer (pH 7.4) by centrifugation at 1000 rpm at 4° C. and resuspended in the same buffer. After the final centrifugation, the supernatant was decanted, and […] of 8% sulfosalycilic acid was added to the cell pellet. The cells were sonicated, and the mixture was kept at 4° C. for at least 1 h. After centrifugation at 8000 g for 5 min, the supernatant was removed for analysis. An appropriate volume (50-100 μl) was fluorescence-labeled by derivatizing with dansyl chloride. Labeled polyamines were loaded onto a C-18 high-performance liquid chromatography column and separated by gradient elution with acetonitrile/water at 50° C. Peaks were detected and quantitated using Shimadzu HPLC fluorescence monitor coupled with a Spectra-Physics peak integrator. Because polyamine levels vary with environmental conditions, control cultures were sampled for each experiment.

PC-3 Cells = assay: Cellular polyamine and oligoamine levels, PC-3 cells (HPLC); type: cell-based
Description: as §5, §6

DU145 = assay: MTT assay, tumor cell growth, DU145; type: cell-based; details: 6 days incubation, read-out: ID50 (μM) values for Human Tumor Cell Lines, DU145
Description: as §1, §2, §3, §4

LnCap = assay: MTT assay, tumor cell growth, LnCap; type: cell-based; details: 6 days incubation, read-out: ID50 (μM) values for Human Tumor Cell Lines, LnCap
Description: as §1, §2, §3, §4

PC-3 = assay: MTT assay, tumor cell growth, PC-3; type: cell-based; details: 6 days incubation, read-out: ID50 (μM) values for Human Tumor Cell Lines, PC-3
Description: as §1, §2, §3, §4

[1] = Day 4 of Treatment, analog conc. 0.8 μM
[2] = Day 4 of Treatment, analog conc. 1.6 μM
[3] = Day 6 of Treatment, analog conc. 0.8 μM
[4] = PC-3, Day 4 of Treatment, analog conc. 1 μM
[5] = PC-3, Day 4 of Treatment, analog conc. 5 μM
[6] = PC-3, Day 6 of Treatment, analog conc. 1 μM

Structure (SMILES) | Conc. (μM) at the start of DNA Aggregation (Calf-thymus DNA) [µM] | IC50 (DuPro) [µM] | Polyamine levels, Analog (cellular oligoamine level) (DuPro Cells; [1]) [nmoles/10^6 cells] | Polyamine levels, Put (DuPro Cells; [1]) [nmoles/10^6 cells] | Polyamine levels, Spm (DuPro Cells; [1]) [nmoles/10^6 cells] | Polyamine levels, Analog (cellular oligoamine level) (DuPro Cells; [2]) [nmoles/10^6 cells] | Polyamine levels, Put (DuPro Cells; [2]) [nmoles/10^6 cells] | Polyamine levels, Analog (cellular oligoamine level) (DuPro Cells; [3]) [nmoles/10^6 cells] | Polyamine levels, Put (DuPro Cells; [3]) [nmoles/10^6 cells] | Polyamine levels, Analog (cellular oligoamine level) (PC-3 Cells; [4]) [nmoles/10^6 cells] | Polyamine levels, Analog (cellular oligoamine level) (PC-3 Cells; [5]) [nmoles/10^6 cells] | Polyamine levels, Analog (cellular oligoamine level) (PC-3 Cells; [6]) [nmoles/10^6 cells] | IC50 (DU145) [µM] | IC50 (LnCap) [µM] | IC50 (PC-3) [µM] | further results
CCNCCCCNCCCCNCCCCNCCCCNCCCCNCCCCNCCCCNCC.Cl.Cl.Cl.Cl.Cl.Cl.Cl.Cl [SL-11160] | 4.5 | 0.55 | 0.575 | 0.430 | 0.222 | 0.775 | 0.412 | 0.410 | 0.675 | 0.005 | 0.011 | 0.007 | 0.13 | 0.15 | 0.4 | Polyamine levels, Spd (DuPro Cells; [1]): 0.897 nmoles/10^6 cells; Polyamine levels, Spm (DuPro Cells; [2]): 0.195 nmoles/10^6 cells; Polyamine levels, Spd (DuPro Cells; [3]): 1.470 nmoles/10^6 cells; Polyamine levels, Spm (DuPro Cells; [3]): 0.290 nmoles/10^6 cells; Polyamine levels, Spd (PC-3 Cells; [4]): 0.097 nmoles/10^6 cells; Polyamine levels, Spm (PC-3 Cells; [4]): 0.502 nmoles/10^6 cells; Polyamine levels, Spd (PC-3 Cells; [5]): 0.077 nmoles/10^6 cells; Polyamine levels, Spm (PC-3 Cells; [5]): 0.525 nmoles/10^6 cells; Polyamine levels, Spd (PC-3 Cells; [6]): 0.085 nmoles/10^6 cells; Polyamine levels, Spm (PC-3 Cells; [6]): 0.180 nmoles/10^6 cells
CCNCCCCNCCCCNCCCCNCCCCNCCCCNCCCCNCCCCNCCCCNCCCCNCCCCNCCCCNCCCCNCCCCNCC.Cl.Cl.Cl.Cl.Cl.Cl.Cl.Cl.Cl.Cl.Cl.Cl.Cl.Cl [SL-11175] | 2.0 | 0.35 | 0.145 | 0.157 | 0.050 | 0.150 | 0.410 | 0.023 | 0.155 | 0.055 | 0.128 | 0.08 | 0.24 | 0.32 | 0.5 | Polyamine levels, Put (PC-3 Cells; [4]): 0.515 nmoles/10^6 cells; Polyamine levels, Put (PC-3 Cells; [5]): 0.519 nmoles/10^6 cells; Polyamine levels, Put (PC-3 Cells; [6]): 0.76 nmoles/10^6 cells
NCCCNCCCCNCCCN [Spermine, reference compound] | 88.5 | – | – | – | – | – | – | – | – | – | – | – | – | – | – | –
